ChEMBL document CHEMBL2417377, “Hit-to-lead optimization and kinase selectivity of imidazo[1,2-a]quinoxalin-4-amine derived JNK1 inhibitors” (Bioorg Med Chem Lett, 2013)

How the values were obtained:
Conditions in all cases: PC-3
[1] = biological target: Dual specificity mitogen-activated protein kinase kinase 1 (Homo sapiens) (UniProt Q02750); assay: Inhibition of MAP2K1 in human PC3 cell lysates at 10 uM using desthiobiotin-tagged ATP probe AX9989 followed by trypsinization by LC/MS analysis
[2] = biological target: MAP/microtubule affinity-regulating kinase 3 (Homo sapiens) (UniProt P27448); assay: Inhibition of MARK3 in human PC3 cell lysates at 10 uM using desthiobiotin-tagged ATP probe AX9989 followed by trypsinization by LC/MS analysis
MAP/microtubule affinity-regulating kinase 3 (Homo sapiens), sequence (P27448 whole entry, looked up): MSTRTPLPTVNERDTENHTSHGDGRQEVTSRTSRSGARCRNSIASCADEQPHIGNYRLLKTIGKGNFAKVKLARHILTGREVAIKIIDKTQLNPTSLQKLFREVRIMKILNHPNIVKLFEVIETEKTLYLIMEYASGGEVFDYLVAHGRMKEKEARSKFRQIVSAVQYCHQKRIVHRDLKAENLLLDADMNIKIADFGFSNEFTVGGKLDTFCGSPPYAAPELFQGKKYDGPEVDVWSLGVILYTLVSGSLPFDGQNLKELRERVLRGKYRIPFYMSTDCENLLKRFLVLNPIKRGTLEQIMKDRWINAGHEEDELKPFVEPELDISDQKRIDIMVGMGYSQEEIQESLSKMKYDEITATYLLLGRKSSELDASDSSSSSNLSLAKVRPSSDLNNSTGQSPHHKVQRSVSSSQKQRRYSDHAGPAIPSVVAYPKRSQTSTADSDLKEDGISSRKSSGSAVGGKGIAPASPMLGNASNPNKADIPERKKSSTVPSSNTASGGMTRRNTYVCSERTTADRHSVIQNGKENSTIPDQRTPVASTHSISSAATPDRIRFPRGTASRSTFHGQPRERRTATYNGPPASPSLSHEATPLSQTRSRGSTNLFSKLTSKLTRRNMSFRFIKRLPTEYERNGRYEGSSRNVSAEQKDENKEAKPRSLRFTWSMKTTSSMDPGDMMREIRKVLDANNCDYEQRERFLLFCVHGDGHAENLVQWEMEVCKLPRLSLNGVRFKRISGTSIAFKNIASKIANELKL

[3] = biological target: T1, Serine/threonine-protein kinase TAO2 (Homo sapiens) (UniProt Q9UL54); assay: Inhibition of TAO2 in human PC3 cell lysates at 10 uM using desthiobiotin-tagged ATP probe AX9989 followed by trypsinization by LC/MS analysis
T1 sequence (whole entry): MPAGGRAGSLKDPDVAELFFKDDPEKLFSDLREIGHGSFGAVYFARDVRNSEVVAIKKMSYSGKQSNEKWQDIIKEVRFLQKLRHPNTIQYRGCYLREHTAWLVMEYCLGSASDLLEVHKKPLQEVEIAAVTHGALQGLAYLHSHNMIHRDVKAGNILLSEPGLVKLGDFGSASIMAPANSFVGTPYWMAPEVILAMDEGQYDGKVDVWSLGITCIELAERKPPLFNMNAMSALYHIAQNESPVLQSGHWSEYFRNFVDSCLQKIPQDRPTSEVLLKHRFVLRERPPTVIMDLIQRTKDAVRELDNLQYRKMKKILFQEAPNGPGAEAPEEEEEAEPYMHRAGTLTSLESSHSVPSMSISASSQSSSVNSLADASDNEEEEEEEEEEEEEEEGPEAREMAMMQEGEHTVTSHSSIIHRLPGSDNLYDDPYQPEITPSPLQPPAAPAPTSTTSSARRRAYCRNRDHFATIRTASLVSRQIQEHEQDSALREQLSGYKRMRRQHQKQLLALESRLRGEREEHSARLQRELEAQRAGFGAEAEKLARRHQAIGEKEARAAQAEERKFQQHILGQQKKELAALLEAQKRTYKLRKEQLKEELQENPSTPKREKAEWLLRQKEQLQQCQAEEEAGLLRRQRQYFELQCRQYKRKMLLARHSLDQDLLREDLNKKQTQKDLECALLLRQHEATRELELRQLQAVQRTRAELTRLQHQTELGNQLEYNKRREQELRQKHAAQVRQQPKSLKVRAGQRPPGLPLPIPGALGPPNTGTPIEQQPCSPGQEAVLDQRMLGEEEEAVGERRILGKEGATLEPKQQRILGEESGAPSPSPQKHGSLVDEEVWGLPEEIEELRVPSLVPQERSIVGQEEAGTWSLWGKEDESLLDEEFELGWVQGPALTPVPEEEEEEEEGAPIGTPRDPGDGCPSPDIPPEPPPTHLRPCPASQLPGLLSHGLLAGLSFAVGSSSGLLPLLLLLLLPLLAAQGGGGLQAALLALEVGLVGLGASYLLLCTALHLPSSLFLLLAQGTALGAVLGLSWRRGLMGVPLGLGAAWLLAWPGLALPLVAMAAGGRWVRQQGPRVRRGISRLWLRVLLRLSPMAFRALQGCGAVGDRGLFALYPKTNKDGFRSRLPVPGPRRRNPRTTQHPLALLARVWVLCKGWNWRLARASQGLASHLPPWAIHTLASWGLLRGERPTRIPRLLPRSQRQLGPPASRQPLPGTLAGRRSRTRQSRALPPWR

[4] = biological target: Tyrosine-protein kinase CSK (Homo sapiens) (UniProt P41240); assay: Inhibition of CSK in human PC3 cell lysates at 10 uM using desthiobiotin-tagged ATP probe AX9989 followed by trypsinization by LC/MS analysis
Tyrosine-protein kinase CSK (Homo sapiens), sequence (P41240 2-450 limits assumed): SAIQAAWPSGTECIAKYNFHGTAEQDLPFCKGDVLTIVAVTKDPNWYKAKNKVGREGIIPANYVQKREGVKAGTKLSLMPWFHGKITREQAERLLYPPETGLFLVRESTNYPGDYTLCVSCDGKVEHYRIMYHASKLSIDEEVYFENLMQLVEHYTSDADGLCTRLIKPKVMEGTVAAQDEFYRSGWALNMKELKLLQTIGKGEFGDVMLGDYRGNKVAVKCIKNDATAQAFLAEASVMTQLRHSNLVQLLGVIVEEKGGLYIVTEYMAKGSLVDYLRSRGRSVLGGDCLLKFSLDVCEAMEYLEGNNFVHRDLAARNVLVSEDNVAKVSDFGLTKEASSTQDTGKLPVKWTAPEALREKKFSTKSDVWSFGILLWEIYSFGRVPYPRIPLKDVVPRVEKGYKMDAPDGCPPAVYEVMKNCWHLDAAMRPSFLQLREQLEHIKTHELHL

[5] = biological target: Glycogen synthase kinase-3 beta (Homo sapiens) (UniProt P49841); assay: Inhibition of GSK3beta in human PC3 cell lysates at 10 uM using desthiobiotin-tagged ATP probe AX9989 followed by trypsinization by LC/MS analysis
Glycogen synthase kinase-3 beta (Homo sapiens), sequence (P49841 whole entry, looked up): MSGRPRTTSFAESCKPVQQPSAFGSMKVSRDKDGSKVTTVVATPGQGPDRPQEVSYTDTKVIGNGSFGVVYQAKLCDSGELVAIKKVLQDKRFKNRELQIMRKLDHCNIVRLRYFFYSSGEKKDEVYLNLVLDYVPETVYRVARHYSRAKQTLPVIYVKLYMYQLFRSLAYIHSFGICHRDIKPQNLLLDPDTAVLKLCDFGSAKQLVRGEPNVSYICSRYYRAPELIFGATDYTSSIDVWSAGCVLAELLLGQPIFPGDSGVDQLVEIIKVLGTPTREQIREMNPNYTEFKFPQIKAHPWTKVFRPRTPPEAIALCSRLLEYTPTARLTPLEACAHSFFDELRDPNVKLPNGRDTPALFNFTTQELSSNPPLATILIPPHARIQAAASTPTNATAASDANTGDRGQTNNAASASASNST

[6] = biological target: Serine/threonine-protein kinase 26 (Homo sapiens) (UniProt Q9P289); assay: Inhibition of MST4 in human PC3 cell lysates at 10 uM using desthiobiotin-tagged ATP probe AX9989 followed by trypsinization by LC/MS analysis
Serine/threonine-protein kinase 26 (Homo sapiens), sequence (Q9P289 2-416 limits assumed): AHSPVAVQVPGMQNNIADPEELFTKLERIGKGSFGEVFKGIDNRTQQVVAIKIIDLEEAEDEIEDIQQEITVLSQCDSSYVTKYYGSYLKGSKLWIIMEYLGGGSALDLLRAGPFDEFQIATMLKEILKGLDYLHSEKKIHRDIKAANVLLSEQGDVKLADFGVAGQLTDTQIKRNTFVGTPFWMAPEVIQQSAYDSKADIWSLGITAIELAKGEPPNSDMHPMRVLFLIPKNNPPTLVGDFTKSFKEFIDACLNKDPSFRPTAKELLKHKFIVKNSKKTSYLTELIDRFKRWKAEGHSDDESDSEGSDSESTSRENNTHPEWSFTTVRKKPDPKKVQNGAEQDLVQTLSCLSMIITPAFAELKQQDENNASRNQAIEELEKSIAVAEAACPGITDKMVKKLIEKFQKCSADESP

[7] = Inhibition of PITSLRE in human PC3 cell lysates at 10 uM using desthiobiotin-tagged ATP probe AX9989 followed by trypsinization by LC/MS analysis; assay type: cell-free
[8] = biological target: Mitogen-activated protein kinase 1 (Homo sapiens) (UniProt P28482); assay: Inhibition of Erk2 in human PC3 cell lysates at 10 uM using desthiobiotin-tagged ATP probe AX9989 followed by trypsinization by LC/MS analysis
Mitogen-activated protein kinase 1 (Homo sapiens), sequence (P28482 whole entry): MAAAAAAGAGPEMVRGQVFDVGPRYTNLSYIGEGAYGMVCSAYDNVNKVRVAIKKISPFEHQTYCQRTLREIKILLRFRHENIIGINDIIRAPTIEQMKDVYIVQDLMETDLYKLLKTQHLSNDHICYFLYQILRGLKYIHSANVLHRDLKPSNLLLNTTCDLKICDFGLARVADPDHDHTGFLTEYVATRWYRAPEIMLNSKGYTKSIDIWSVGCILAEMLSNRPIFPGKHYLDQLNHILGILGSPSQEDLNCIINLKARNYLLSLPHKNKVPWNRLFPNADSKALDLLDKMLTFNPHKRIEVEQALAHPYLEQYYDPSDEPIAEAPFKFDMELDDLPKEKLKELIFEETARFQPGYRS

[9] = biological target: Protein kinase C beta type (Homo sapiens) (UniProt P05771); assay: Inhibition of PKCbeta in human PC3 cell lysates at 10 uM using desthiobiotin-tagged ATP probe AX9989 followed by trypsinization by LC/MS analysis
Protein kinase C beta type (Homo sapiens), sequence (P05771 2-671 limits assumed): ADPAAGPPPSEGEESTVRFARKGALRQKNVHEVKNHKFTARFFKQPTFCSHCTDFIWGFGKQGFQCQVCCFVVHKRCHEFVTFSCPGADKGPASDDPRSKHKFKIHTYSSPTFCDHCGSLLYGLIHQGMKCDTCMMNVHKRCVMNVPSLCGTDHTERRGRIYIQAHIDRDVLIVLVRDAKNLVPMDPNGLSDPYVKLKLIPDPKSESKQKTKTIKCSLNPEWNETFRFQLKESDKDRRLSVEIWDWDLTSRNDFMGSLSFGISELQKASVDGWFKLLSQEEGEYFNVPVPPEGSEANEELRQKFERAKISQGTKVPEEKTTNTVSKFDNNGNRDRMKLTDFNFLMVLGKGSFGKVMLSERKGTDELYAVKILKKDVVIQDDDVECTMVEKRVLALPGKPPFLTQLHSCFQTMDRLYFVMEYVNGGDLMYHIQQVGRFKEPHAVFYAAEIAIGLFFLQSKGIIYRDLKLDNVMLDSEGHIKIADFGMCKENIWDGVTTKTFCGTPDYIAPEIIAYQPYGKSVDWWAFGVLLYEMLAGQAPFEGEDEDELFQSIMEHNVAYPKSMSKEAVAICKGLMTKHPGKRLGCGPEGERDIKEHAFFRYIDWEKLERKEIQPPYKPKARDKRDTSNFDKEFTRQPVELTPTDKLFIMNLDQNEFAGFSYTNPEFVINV

[10] = biological target: Cyclin-dependent kinase 8 (Homo sapiens) (UniProt P49336); assay: Inhibition of CDK8 in human PC3 cell lysates at 10 uM using desthiobiotin-tagged ATP probe AX9989 followed by trypsinization by LC/MS analysis
[11] = biological target: Mitogen-activated protein kinase kinase kinase 11 (Homo sapiens) (UniProt Q16584); assay: Inhibition of MLK3 in human PC3 cell lysates at 10 uM using desthiobiotin-tagged ATP probe AX9989 followed by trypsinization by LC/MS analysis
Mitogen-activated protein kinase kinase kinase 11 (Homo sapiens), sequence (Q16584 whole entry, looked up): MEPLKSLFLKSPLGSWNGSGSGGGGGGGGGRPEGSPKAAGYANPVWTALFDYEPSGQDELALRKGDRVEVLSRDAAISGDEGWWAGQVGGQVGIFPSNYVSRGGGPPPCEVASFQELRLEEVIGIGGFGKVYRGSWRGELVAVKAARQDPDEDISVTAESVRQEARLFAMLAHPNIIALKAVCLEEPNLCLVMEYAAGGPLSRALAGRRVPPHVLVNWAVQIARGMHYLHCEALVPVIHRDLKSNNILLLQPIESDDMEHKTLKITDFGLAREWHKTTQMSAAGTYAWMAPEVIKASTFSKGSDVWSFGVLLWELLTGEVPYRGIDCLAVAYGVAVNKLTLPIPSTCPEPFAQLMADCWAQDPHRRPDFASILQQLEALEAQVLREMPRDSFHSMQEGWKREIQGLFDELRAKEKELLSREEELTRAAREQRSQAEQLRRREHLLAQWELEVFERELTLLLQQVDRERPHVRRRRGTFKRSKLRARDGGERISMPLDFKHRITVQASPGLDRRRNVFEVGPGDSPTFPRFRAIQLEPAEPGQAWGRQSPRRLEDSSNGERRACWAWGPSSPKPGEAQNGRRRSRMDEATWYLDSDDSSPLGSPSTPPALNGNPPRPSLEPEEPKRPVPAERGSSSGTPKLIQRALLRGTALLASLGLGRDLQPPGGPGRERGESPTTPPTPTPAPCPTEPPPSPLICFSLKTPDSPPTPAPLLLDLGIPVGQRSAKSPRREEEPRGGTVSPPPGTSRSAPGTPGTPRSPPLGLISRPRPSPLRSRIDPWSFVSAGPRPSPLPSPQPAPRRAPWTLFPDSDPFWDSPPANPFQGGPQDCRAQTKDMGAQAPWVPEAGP

[12] = biological target: Calcium/calmodulin-dependent protein kinase type II subunit gamma (Homo sapiens) (UniProt Q13555); assay: Inhibition of CaMK2gamma in human PC3 cell lysates at 10 uM using desthiobiotin-tagged ATP probe AX9989 followed by trypsinization by LC/MS analysis
Calcium/calmodulin-dependent protein kinase type II subunit gamma (Homo sapiens), sequence (Q13555 whole entry): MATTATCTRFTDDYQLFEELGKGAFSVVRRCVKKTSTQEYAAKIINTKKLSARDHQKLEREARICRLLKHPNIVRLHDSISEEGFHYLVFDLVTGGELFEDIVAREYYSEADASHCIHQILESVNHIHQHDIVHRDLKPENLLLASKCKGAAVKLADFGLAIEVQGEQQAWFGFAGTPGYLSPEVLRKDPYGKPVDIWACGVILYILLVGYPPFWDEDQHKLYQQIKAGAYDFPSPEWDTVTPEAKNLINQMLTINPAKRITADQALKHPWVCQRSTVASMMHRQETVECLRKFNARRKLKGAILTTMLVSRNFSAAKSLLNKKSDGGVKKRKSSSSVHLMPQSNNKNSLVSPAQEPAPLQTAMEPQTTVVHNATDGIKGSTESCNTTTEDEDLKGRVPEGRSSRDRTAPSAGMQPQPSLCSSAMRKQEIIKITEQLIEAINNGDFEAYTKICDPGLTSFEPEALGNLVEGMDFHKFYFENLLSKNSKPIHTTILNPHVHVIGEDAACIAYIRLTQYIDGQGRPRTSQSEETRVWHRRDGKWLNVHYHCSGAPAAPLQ

[13] = biological target: Phosphatidylinositol 4-kinase beta (Homo sapiens) (UniProt Q9UBF8); assay: Inhibition of PI4KB in human PC3 cell lysates at 10 uM using desthiobiotin-tagged ATP probe AX9989 followed by trypsinization by LC/MS analysis

Dual specificity mitogen-activated protein kinase kinase 1 (Homo sapiens), sequence (Q02750 whole entry): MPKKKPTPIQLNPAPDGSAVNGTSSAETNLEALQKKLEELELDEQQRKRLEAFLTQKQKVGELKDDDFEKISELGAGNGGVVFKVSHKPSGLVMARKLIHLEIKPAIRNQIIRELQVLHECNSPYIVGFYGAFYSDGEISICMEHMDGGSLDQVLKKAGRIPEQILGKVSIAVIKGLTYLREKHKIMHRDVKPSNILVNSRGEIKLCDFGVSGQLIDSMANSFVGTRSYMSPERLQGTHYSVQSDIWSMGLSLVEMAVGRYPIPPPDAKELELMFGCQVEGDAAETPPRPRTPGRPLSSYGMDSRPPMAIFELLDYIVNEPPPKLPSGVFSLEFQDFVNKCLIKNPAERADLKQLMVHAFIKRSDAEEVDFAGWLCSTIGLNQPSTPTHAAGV

| SMILES | inhibition [1] [%] | inhibition [2] [%] | inhibition [3] [%] | inhibition [4] [%] | inhibition [5] [%] | inhibition [6] [%] | inhibition [8] [%] | inhibition [9] [%] | inhibition [10] [%] | inhibition [11] [%] | inhibition [12] [%] | inhibition [13] [%] | inhibition [7] [%] |
| --- | --- | --- | --- | --- | --- | --- | --- | --- | --- | --- | --- | --- | --- |
| CC(C)(NC(=O)c1ccc2nc(N[C@H]3CC[C@H](O)CC3)c3nccn3c2c1)c1ccccc1 | < 35 | < 35 | < 35 | < 35 | < 35 | < 35 | < 35 | < 35 | < 35 | < 35 | < 35 | < 35 | < 35 |
| O=C(NC1(Cc2ccc(F)cc2)CC1)c1ccc2nc(N[C@H]3CC[C@H](O)CC3)c3nccn3c2c1 | < 35 | < 35 | < 35 | < 35 | < 35 | < 35 | < 35 | < 35 | < 35 | < 35 | < 35 | < 35 | < 35 |
| O=C(N[C@H](CO)c1ccccc1)c1ccc2nc(N[C@H]3CC[C@H](O)CC3)c3nccn3c2c1 | < 35 | < 35 | < 35 | < 35 | < 35 | < 35 | < 35 | < 35 | < 35 | < 35 | < 35 | 51 | < 35 |
| O=C(NC1(c2ccc(F)cc2)CC1)c1ccc2nc(N[C@H]3CC[C@H](O)CC3)c3nccn3c2c1 | < 35 | < 35 | < 35 | < 35 | < 35 | < 35 | < 35 | < 35 | < 35 | < 35 | < 35 | < 35 | < 35 |
| CCC[C@@H](NC(=O)c1ccc2nc(N[C@H]3CC[C@H](O)CC3)c3nccn3c2c1)c1ccccc1 | < 35 | < 35 | < 35 | < 35 | < 35 | < 35 | < 35 | < 35 | < 35 | < 35 | < 35 | < 35 | < 35 |
| O=C(NC1(c2ccccc2)CCC1)c1ccc2nc(N[C@H]3CC[C@H](O)CC3)c3nccn3c2c1 | < 35 | < 35 | < 35 | < 35 | < 35 | < 35 | < 35 | < 35 | < 35 | < 35 | < 35 | < 35 | < 35 |
| NC(=O)c1ccc2nc(N[C@H]3CC[C@H](O)CC3)c3nccn3c2c1 | < 35 | < 35 | < 35 | < 35 | 96 | < 35 | < 35 | < 35 | < 35 | < 35 | < 35 | 94.2 | 95.6 |

Continued, in another order:

| inhibition [1] [%] | inhibition [2] [%] | inhibition [3] [%] | inhibition [4] [%] | inhibition [5] [%] | inhibition [6] [%] | inhibition [8] [%] | inhibition [9] [%] | inhibition [10] [%] | inhibition [11] [%] | inhibition [12] [%] | inhibition [13] [%] | SMILES | inhibition [7] [%] |
| --- | --- | --- | --- | --- | --- | --- | --- | --- | --- | --- | --- | --- | --- |
| < 35 | < 35 | < 35 | < 35 | < 35 | < 35 | < 35 | < 35 | < 35 | < 35 | < 35 | < 35 | C[C@H](NC(=O)c1ccc2nc(N[C@H]3CC[C@H](O)CC3)c3nccn3c2c1)c1ccccc1 | < 35 |
| < 35 | < 35 | < 35 | < 35 | < 35 | < 35 | < 35 | < 35 | < 35 | < 35 | < 35 | 40.4 | C[C@@H](NC(=O)c1ccc2nc(N[C@H]3CC[C@H](O)CC3)c3nccn3c2c1)c1ccccc1 | < 35 |
| < 35 | < 35 | < 35 | < 35 | < 35 | < 35 | < 35 | < 35 | < 35 | < 35 | 48.7 | < 35 | CC[C@@H](NC(=O)c1ccc2nc(N[C@H]3CC[C@H](O)CC3)c3nccn3c2c1)c1ccccc1 | < 35 |
| < 35 | < 35 | 67 | < 35 | 98.6 | < 35 | < 35 | < 35 | < 35 | < 35 | < 35 | 99.2 | O=C(O)c1ccc2nc(N[C@H]3CC[C@H](O)CC3)c3nccn3c2c1 | 99.3 |
| < 35 | < 35 | < 35 | < 35 | < 35 | < 35 | < 35 | < 35 | < 35 | < 35 | < 35 | < 35 | O=C(NC1(c2ccccc2)CC1)c1ccc2nc(N[C@H]3CC[C@H](O)CC3)c3nccn3c2c1 | < 35 |
